Earlier results on 3 compounds are cited in patent US20240115670A1, “FIBROBLAST ACTIVATION PROTEIN MODULATION TO ALTER IMMUNE CELL MIGRATION AND TUMOR INFILTRATION” (Georgetown University, priority 2021, published 2024).

The subject of data set [1] is advanced or metastatic FAP+ cancer. The settings on record: cited from earlier work.
In data set [2] the test system is metastatic colorectal cancer. The settings on record: cited from earlier work.
The test system of another data set is colon carcinoma. The following applies: combination with oxaliplatin; cited from earlier work.
Data set [3] relates to primitive hematopoietic progenitor cells. The following applies: by increasing G-CSF, IL-6, and IL-11 from bone marrow stromal cells; cited from earlier work.
The subject of data set [4] is advanced metastatic colorectal cancer. The settings on record: cited from earlier work.
The next data set deals with stage IV melanoma. The settings on record: cited from earlier work.
Another data set relates to myeloma cells. The following applies: coculture with osteoclasts; cited from earlier work.
The subject of data set [5] is advanced non-small cell lung cancer. The settings on record: cited from earlier work.
The test system of another data set is myeloma. The settings on record: in vivo; cited from earlier work.
Data set [6] concerns syngeneic tumors derived from fibrosarcoma, lymphoma, melanoma, mastocytoma, rhabdomyosarcoma and bladder cancer cell lines. The settings on record: oral administration; cited from earlier work.
In a further data set the target is serum DPPIV (Homo sapiens, UniProt P27487). The following applies: cited from earlier work.
For another data set, the system named is CAF. The settings on record: via downregulation of FAP; cited from earlier work.
The next data set deals with gastric cancer. The settings on record: via downregulation of FAP; cited from earlier work.

Sequence of serum DPPIV (P27487 39-766 limits assumed): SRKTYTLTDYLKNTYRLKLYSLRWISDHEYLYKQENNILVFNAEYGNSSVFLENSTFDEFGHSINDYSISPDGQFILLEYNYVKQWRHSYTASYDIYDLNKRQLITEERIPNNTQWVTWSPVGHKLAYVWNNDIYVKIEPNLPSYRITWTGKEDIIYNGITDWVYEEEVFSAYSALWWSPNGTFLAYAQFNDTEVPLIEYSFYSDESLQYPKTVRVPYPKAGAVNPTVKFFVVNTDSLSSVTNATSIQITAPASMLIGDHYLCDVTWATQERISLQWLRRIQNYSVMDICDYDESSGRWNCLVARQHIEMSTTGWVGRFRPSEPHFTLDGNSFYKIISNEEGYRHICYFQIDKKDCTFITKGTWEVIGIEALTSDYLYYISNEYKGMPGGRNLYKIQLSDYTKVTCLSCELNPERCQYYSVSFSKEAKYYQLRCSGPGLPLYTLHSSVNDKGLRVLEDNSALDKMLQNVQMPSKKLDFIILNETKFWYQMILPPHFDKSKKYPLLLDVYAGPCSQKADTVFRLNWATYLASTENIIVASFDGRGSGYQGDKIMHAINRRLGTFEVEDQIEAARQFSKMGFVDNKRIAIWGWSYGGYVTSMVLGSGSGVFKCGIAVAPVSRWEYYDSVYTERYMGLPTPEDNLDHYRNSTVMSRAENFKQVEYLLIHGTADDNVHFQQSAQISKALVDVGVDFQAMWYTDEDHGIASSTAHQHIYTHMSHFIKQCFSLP

Take “sibrotuzumab: humanized monoclonal anti-FAP antibody”: the dose limiting toxicity entry in data set [1] (in vivo) is listed as “one”. In [1] (phase I), the clinical responses entry is on record as “no clinical responses” and the “patients with stable disease” value is recorded as 2/26. The tolerability entry in [2] (in vivo) is “well tolerated”. Moreover, the clinical activity result in data set [2] (phase II, trial suspended) is “lack of clinical activity”.
Consider `CC(C)[C@H](N)C(=O)N1CCC[C@H]1B(O)O` [talabostat, Talabostat], for which, in the data set on colon carcinoma, the efficacy of oxaliplatin entry is on record as “enhanced”. Further, in [3], the “growth of primitive hematopoietic progenitor cells” value is given as “promoted growth”. Further, in data set [4] (single agent trial, acute renal failure due to cytokine storm), the “Grade 5 adverse events” value is recorded as “one”. For the same compound, in data set [4] (single agent), the clinical responses entry was “no complete or partial responses”. Besides, in the data set with stage IV melanoma (in vivo), the “patients discontinuing talabostat due to side effects” value is 18% and the “patients with grade 3 or 4 adverse events” value is on record as 56%. Besides, in the data set on stage IV melanoma (with cisplatin, second-line), the “patients with partial response” value is 8.1% and the “patients with stable disease” value is recorded as 62.5%. For the same compound, the myeloma cell proliferation result in the data set with myeloma cells is recorded as “concentration-dependent decreased”. For the same compound, in data set [5] (none considered definitely or probably related to talabostat), the “patients with adverse events resulting in death” value was “eight”. Further, in [5] (with docetaxel), the durable complete responses entry is “two”, the overall response rate is recorded as 9.1%, the partial responses result is “three” and the stable disease rate was 54%. Besides, the “osteoclast activity, bone resorption and tumor burden” value in the data set with myeloma was “reduced”. For the same compound, the “growth of syngeneic tumors” value in data set [6] is reported as “slowed growth”. Further, the “serum DPPIV inhibition” value on serum DPPIV (dose of 600 ug/m2, at 24 hours) is given as 85%. The dose-limiting toxicities result on serum DPPIV (phase I, pediatric solid tumors) was “No dose-limiting toxicities were observed”.
polyphyllin: the “CAF proliferation in vitro” value in the data set on CAF was “decreased”. Also, the “tumor growth in vivo” value with gastric cancer was “decreased”.
